Measurements reported in patent US6610699B2, “Use of L-carnitine and its alkanoyl derivatives in the preparation of medicaments with anticancer activity” (Sigma-Tau Industrie Farmaceutiche Riunite S.p.A., priority 1998, dated 2003).
Where two headings read alike, the source gives them in different places. Marks after values point to notes of the source that are not given here.

Key:
[1] = Taxol-induced weight loss: body weight; type: in vivo, rat; settings: for Body weight, BASAL: prior to starting treatment; for Body weight, % vs BASALE / Body weight, % vs SHAM: 5 weeks; for Body weight, 5 WEEKS: end of treatment
From the text: The animals used in the preceding experimental model were weighed prior to starting treatment (basal values) and at the end of treatment.

[2] = system: L-MM3 murine breast cancer cells; assay: L-MM3 murine breast cancer in Balb/c mice, taxol and PLC, Experiment B (schedule B)
Procedure: Cell cultures of L-MM3 murine breast cancer cells were used, cultured at 37° C. in plastic flasks in a humidified atmosphere with 5% CO^2. The cells were grown in DMEM supplemented with 10% FCS and in the presence of 2 mM L-glutamine and 80 μg/ml of gentamicin. The subconfluent cells were collected during the exponential growth phase using trypsin-EDTA and re-suspended in DMEM. They were then injected subcutaneously in female Balb/c mice weighing 20 g at a density of 4×10^5.
The tumour was measured with a calliper three times a week as soon as it became palpable. The tumour mass is calculated on the basis of the measurements of the two dimensions (length and width), expressed in mm, according to the following formula: [formula]
If we consider conventionally a tumour density equal to 1, the result is that the tumour volume is equal to (mm^3=mg).
The agent is weighed, solubilised in the specific vehicle (12 mg/ml), and stored at +4° C., sheltered from the light. At the time of use, it is diluted 1:4 with saline solution in phosphate buffer (PBS, SIGMA) and injected.
Cremophor is diluted 1:1 with ethanol and stored sheltered from the light. On the day of treatment it is diluted 1:4 with PBS.

Hamsters [3] = assay: Bleomycin-induced pulmonary toxicity in hamsters: lung hydroxyproline content; type: in vivo, hamster; settings: pre-treatment i.p. (ALC 200 mg/kg or saline, daily 1 week)/intratracheal instillation (bleomycin 1 unit or saline); day 22
Procedure: (§1) Hamsters weighing 120 g were treated with bleomycin (1 unit) by the intratracheal route (IT) or with an equivalent volume of saline. In addition, the animals were pre-treated with ALC (200 mg/kg) or saline intraperitoneally just before the instillation of bleomycin, followed by daily injections for 1 week. The animals were allowed 3 weeks to recover prior to taking the tissue samples. At the time tissue samples were taken (day 22), one lung of each animal was prepared for histological investigation and the other lung for quantitative determination of hydroxyproline.
The hydroxyproline content (one of the main constituents of collagen) was measured using the known Woessner method. Lung samples were homogenised, hydrolysed with NaOH, and then left to oxidise before adding Erlich aldehyde reagent. Duplicate aliquots of each sample were assayed by spectrophotometry and compared with a standard calibration curve obtained with purified hydroxyproline. The hydroxyproline content (HYP) is expressed as mg/lung.

Female Wistar rats = assay: Taxol-induced peripheral neuropathy: sensory nerve conduction velocity measured on the tail; settings: 5 weeks
Procedure: Female Wistar rats aged 3 months (Charles River) were used, housed at 22±2° C., with 50±15% relative humidity and a 12 hour light/darkness cycle.
The following method was used: the animals, anaesthetised with a gaseous mixture composed of 0.45 halothane, nitrogen protoxide and oxygen, were depilated in the stimulation zone and placed on an operating table. The recordings and stimulations of the sensory responses were done using an Ote Biomedica Phasis II electromyograph. […]
The sensory nerve conduction velocity, expressed in ms, was calculated as the ratio of the distance between the two stimulation points, expressed in mm, to the difference in latency of the waves produced by proximal (the nearest) and distal (the farthest from the dorsal spine) stimulation, expressed in ms.
The velocity was measured in all groups of animals both in basal conditions (prior to any administration) and after 5 weeks of treatment.
The results were expressed as means±standard deviation; significance was assessed using the “t”-test, for both independent and paired data, with a statistical significance cut-off of p<0.05.

LOVO human colon cancer = settings: ALC 100 mg/kg qdx18 alone
Procedure: Cell cultures of LOVO human colon cancer, transplanted in hairless mice, were used.
The tumour was inoculated in solid fragments in both flanks of the mice (day 0).
The inoculated tumours were measured with a calliper and when a mean tumour weight of 100 mg was reached (day 7), the animals were divided into 4 groups of 5 animals each according to the following schedule:
On the same day, ALC treatment was initiated and was continued for 18 consecutive days (qdx18) (groups 3 and 4). ALC was administered at the dose of 100 mg/kg with an administration volume of 25 ml/kg.
In the course of the treatment and in the following three weeks at fortnightly intervals, the tumours were measured and tumour volume inhibition was calculated (TVI%, calculated as 100-(mean weight of tumours treated/mean weight of control tumours×100)) as obtained with the various treatments.

Hamsters [4] = assay: Bleomycin-induced pulmonary toxicity in hamsters: lung histology; type: in vivo, hamster; settings: day 22
Procedure: as §1
The lungs were fixed by insufflation at 20 cm of H2O ex vivo with 10% formaldehyde in PBS (pH 7), embedded in paraffin, sectioned and stained with haematoxylin/eosin. Sections with similar orientation from the portion of the pulmonary lobe—upper, middle and lower, respectively—were examined to verify the presence and degree of inflammatory infiltrate, oedema and interstitial and intra-alveolar fibrosis.

[5] = taxol i.v. 54 mg/kg/15 ml, sacrifice after 3 days' recovery from last taxol administration
[6] = taxol i.v., sacrifice 6 hours after fourth taxol administration

## CC(=O)O[C@H]1C(=O)[C@@]2(C)[C@H]([C@H](OC(=O)c3ccccc3)[C@]3(O)C[C@H](OC(=O)[C@H](O)[C@@H](NC(=O)c4ccccc4)c4ccccc4)C(C)=C1C3(C)C)[C@]1(OC(C)=O)CO[C@@H]1C[C@@H]2O [Taxol, paclitaxel, reference compound]
BALB/c mice; [5]
  Absolute neutrophils: 330 ± /mm^3
  Lymphocytes: 93.0%
  Neutrophils: 7.0%
BALB/c mice; [6]
  Absolute neutrophils: 229 ± /mm^3
  Lymphocytes: 97.1%
  Neutrophils: ****2.9%
[1]; taxol 8 mg/kg groups
  Body weight, BASAL: 210 ± 9.1
[1]; taxol 8 mg/kg
  Body weight, % vs BASALE: +13** %
  Body weight, % vs SHAM: +1%
  Body weight, 5 WEEKS: 237 ± 20.8
[1]; taxol 16 mg/kg groups
  Body weight, BASAL: 212 ± 12.5
[1]; taxol 16 mg/kg
  Body weight, % vs BASALE: −15** %
  Body weight, % vs SHAM: −23● %
  Body weight, 5 WEEKS: 180 ± 16.0
[2]
  Animals with tumours/total animals, Day 45: 5/10
  Animals with tumours/total animals, Day 59: 6/10
  Tumour size, Day 26: 0.1 ± 0.6
  Tumour size, Day 31: 0.2 ± 0.2
  Tumour size, Day 37: 0.45 ± 0.2
  Tumour size, Day 41: 1.750 ± 1.1
  Tumour size, Day 53: 5.000 ± 2.2
  Tumour size, Day 59: 5.6 ± 2.2
[2]; day of inoculation
  Tumour size, Day 0: 0
[2]; taxol 30 mg/kg i.p. days 8,10,12,14, PLC 100 mg/kg s.c. to day 59
  Animals with tumours/total animals, Day 31: 2/10

## CC(=O)O[C@H](CC(=O)[O-])C[N+](C)(C)C [ALC, acetyl L-carnitine]
Hamsters [3]
  hydroxyproline content (HYP): 0.801 mg/lung
Female Wistar rats; acetyl L-carnitine with taxol 8 mg/kg
  Sensory nerve conduction velocity, % vs TAXOL: 5%
Female Wistar rats; acetyl L-carnitine with taxol 16 mg/kg
  Sensory nerve conduction velocity, % vs TAXOL: 9%
LOVO human colon cancer
  effect on tumour growth (in words): no effect on tumour growth
Hamsters [4]; animals pre-treated with ALC and given bleomycin IT
  lung histology (in words): a number of fibrotic areas, which, however, appeared thinner with less dense areas of collapse
Hamsters [4]; pre-treatment/IT instillation
  lung histology (in words): normal alveolar architecture
